# Data taken from patent publication US20200360331A1, “COMPOSITIONS COMPRISING 15-HEPE AND/OR 15-HETrE AND METHODS OF TREATING OR PREVENTING CARDIOMETABOLIC DISEASE, METABOLIC SYNDROME, AND/OR RELATED DISEASES” (Afimmune Limited, priority 2019, published 2020).
# Entries after “also recorded” stand apart in the source; their conditions may differ.
# Key:
# NAFLD patients = assay: Phase IIa NAFLD study: proteomics of blood samples; type: in vivo, human
# Excerpt: The study was planned to include 96 evaluable patients with 32 patients randomized per treatment group. […] Exploratory analysis: The exploratory analysis included analysis of lipid and metabolic parameters including total cholesterol, triglycerides, very low-density lipoprotein cholesterol (VLDL-C), low density lipoprotein cholesterol (LDL-C), high density lipoprotein cholesterol (HDL-C), non-high-density lipoprotein cholesterol (non-HDL-C), remnant-like particle cholesterol (RLP-C), fasting glucose, insulin, free fatty acids and hemoglobin A1C (HbA1C). Additional exploratory analysis included high throughput lipidomics and proteomics.
# [1] = system: TβR-III (type III TGF-β receptor, betaglycan); assay: Sucrose density gradient analysis in Mv1Lu cells, TβR-III; type: cell-based, mink; details: 100 μM, 0, 1, 4 and 24 hours
# Procedure: Sucrose gradient ultracentrifugation and confocal microscopy were used to identify 15-HEPE induced microdomain translocation of TGF-β receptors by sucrose. Sucrose density gradient analysis of TGF-β receptors was conducted in the plasma membranes of Mv1Lu cells (mink lung epithelial cell) treated with 100 μM of 15-HEPE and an equal volume of DMSO (dimethyl sulfoxide) at 37° C. for 0, 1, 4, and 24 hours, and the cell lysates from these treated cells were subjected to sucrose density gradient ultracentrifugation. The sucrose gradient fractions were then analyzed by Western blot analysis using anti-TβR-I (type I TGF-β receptor), anti-TβR-II (type II TGF-β receptor), anti-TβR-III (type III TGF-β receptor, betaglycan), anti-EGFR (epidermal growth factor receptor), and anti-caveolin-1 antibodies. The lipid raft/caveolae, and non-lipid raft microdomain localization of TβR-I, TβR-II, TβR-III, EGFR and caveolin-1 in the plasma membrane of untreated cells or cells treated with 15-HEPE were assessed to determine the effects of 15-HEPE on the membrane microdomain localization of the TGF-β receptors. […]
# UUO mice = assay: UUO study: Sirius red staining of kidney sections, fibrosis area; type: in vivo, C57BL/6 mice; details: for fibrosis area compared with the Vehicle group: Mann-Whitney U test (p<0.1); for Sirius red-positive area / Sirius red-positive area (%) _Median: kidney
# Procedure: UUO Surgery: On day 0 of the study, UUO surgery was performed on mice under pentobarbital sodium anesthesia. The mouse's hair was first shaved and then abdomen cut open to exteriorize the mouse's left ureter. The ureter was ligated 4-0 nylon sutures at two points. The mouse's peritoneum and skin were then closed with sutures, and the mouse transferred to a clean cage until recovered from the anesthesia. Sham operated mice had their left ureter exposed but not ligated.
# Histopathological analysis: To visualize collagen deposition, kidney sections were stained using picro-Sirius red solution (Waldeck, Germany). For quantification of interstitial fibrosis area, bright field images in the corticomedullary region were captured using a digital camera (e.g., DFC295; Leica Microsystems, Germany) at 200-fold magnification, and the positive areas in 5 fields/section were measured using ImageJ software (National Institute of Health, USA).
# BDL-operated mice = assay: BDL study: serum biochemistry (ALT, total bilirubin); type: in vivo, C57BL/6J mice; details: for Serum ALT / Serum Total Bilirubin: BDL mice
# Procedure: BDL Surgery: On Day 0 of the study, BDL surgery was performed under pentobarbital (Kyoritsu Seiyaku, Japan) anesthesia. The mouse's hair was first shaved, the abdominal cavity cut open, and the common bile duct was ligated twice with 7-0 surgical silk. The mouse's peritoneum and the skin were closed with sutures, and the mice were transferred to a clean cage (e.g., resting cage) until recovered from anesthesia. Sham operated mice had their common bile duct exposed but not ligated.
# Sample Collection: For serum samples, non-fasting blood was collected in serum separate tubes without anticoagulant through direct cardiac puncture and centrifuged at 3,500×g for 4 minutes at 4° C. The supernatant was collected and stored at −80° C. for biochemistry (30 μL) and shipping (all the remaining). For liver samples, left lateral lobe was collected and cut into 6 pieces. Two pieces of left lateral lobe were fixed in Bouin's solution and then embedded in paraffin. Samples were stored at room temperature for histological analysis. The other 2 pieces of left lateral lobe were embedded in O.C.T. compound and quick frozen in liquid nitrogen. Samples were stored at −80° C. The remaining pieces of left lateral lobe was snap frozen in liquid nitrogen and stored at −80° C. for gene expression analyses. Right medial lobe, left medial lobe, right lobe and caudate lobe were snap frozen in liquid nitrogen and stored at −80° C. for shipping.
# [2] = 50 mg/kg PO QD Day 0-13, Day 14
# [3] = 500 mg/kg PO QD Day 0-13, Day 14
# [4] = 250 mg/kg PO QD Day 0-13, Day 14
# [5] = BDL mice, 50, 250 and 500 mg/kg
compound,measurement,setting,value
"CC/C=C\CC(O)/C=C/C=C\C/C=C\C/C=C\CCCC(=O)O (centres unmarked) [DS102, 15-hydroxy-eicosa-5Z,8Z,11Z,13E,17Z-pentaenoic acid]",TR protein,NAFLD patients; 1 g,significant reductions
same,"NASH drug development targets CCR2/5 signaling, Galectin3, AOC3",NAFLD patients; 2 g,decreased
same,"number of markers (inflammation, fibrosis, lipid metabolism, apoptosis, chemotaxis) significantly downregulated","NAFLD patients; 2 g, panel of greater than 350 protein biomarkers",over 150
same,inflammatory and pro-fibrotic proteins (protein expression),"NAFLD patients; 2 g, Bonferroni: PAI-1, TIMP-1, DPP4, TLT2, CCL16, MCP-1, SAA4, PI3/Elafin, TR, LILRB1, TNRSF11A, linear model: TLT2, AOC3, PRSS2",decreased
same,expression of multiple circulating chemokines,NAFLD patients; NAFLD patients,decreased
same,expression of multiple proteins associated with increased cardiovascular risk,NAFLD patients; NAFLD patients,decreased
same,expression of multiple tumor necrosis factor receptor superfamily members,NAFLD patients; NAFLD patients,decreased
same,expression of multiple vascular adhesion molecules,NAFLD patients; NAFLD patients,decreased
same,localization and abundance of TβR-III,[1],did not change the localization and abundance
same,fibrosis area compared with the Vehicle group,UUO mice; 50 mg/kg,tended to decrease; also recorded: reduction trend
same,fibrosis area compared with the Vehicle group,UUO mice; 500 mg/kg,tended to decrease; also recorded: reduction trend
same,Sirius red-positive area,UUO mice; [2],5.01 ± 3.11%
same,Sirius red-positive area (%) _Median,"UUO mice; 50 mg/kg PO QD Day 0-13, Day 14, median",4.19 ± 3.33%
same,Sirius red-positive area,UUO mice; [3],4.01 ± 1.92%
same,Sirius red-positive area (%) _Median,"UUO mice; 500 mg/kg PO QD Day 0-13, Day 14, median",3.08 ± 1.16%
same,Serum ALT,BDL-operated mice; [2],402 ± 112 U/L
same,Serum Total Bilirubin,BDL-operated mice; [2],26.8 ± 6.9 mg/dL
same,Serum ALT,BDL-operated mice; [4],351 ± 155 U/L
same,Serum Total Bilirubin,BDL-operated mice; [4],23.5 ± 9.8 mg/dL
same,Serum ALT,BDL-operated mice; [3],383 ± 147 U/L
same,Serum Total Bilirubin,BDL-operated mice; [3],26.2 ± 6.1 mg/dL
same,serum ALT level vs Vehicle group,BDL-operated mice; [5],no significant differences
same,serum total bilirubin level vs Vehicle group,BDL-operated mice; [5],no significant differences
